We go through one compound from US4914245A, “Culpin” (E. R. Squibb & Sons, Inc., priority 1989, dated 1990).

Values after ≈ are worked out from the molar mass of the structure shown.

What all share (format): cell-based
One assay deals with Streptococcus agalactiae. Briefly: agar dilution assay (MIC) vs Streptococcus agalactiae SC 9287. The conditions noted are these: Streptococcus agalactiae S.C. No. 9287; K-10 agar; 10^4 CFU; 37° C., 18 hours. As for the experimental part:
(§1) The following methodology was used to determine the minimum inhibitory concentration (hereinafter referred to as MIC) of the compounds of this invention against bacteria. The test organisms were grown in 20 ml of Antibiotic Assay Broth (Difco) by inoculating the broth (in tubes) with a loopful of the organism from a BHI (Difco) agar slant. The inoculated tubes were incubated at 37° C. for 18 to 24 hours. These cultures were assumed to contain 10^9 colony forming units (CFU) per ml. The cultures were diluted 1:100 to give a final inoculum level of 10^7 CFU; dilutions were made with Yeast Beef Broth (Difco). The test compounds were dissolved in an appropriate diluent at a concentration of 1,000 μg/ml. Two-fold dilutions were made in Yeast Beef Broth (Difco), resulting in a range from 1000 μg/ml to 0.5 μg/ml. A 1.5 ml portion of each dilution was placed into individual petri dishes to which 13.5 ml of K-10 agar was added. The composition of K-10 agar is The final drug concentration in the agar ranged from 100 μg/ml to 0.05 μg/ml. Organism growth control plates containing agar only were prepared and inoculated before and after the test plates. […] The plates were incubated at 37° C. for 18 hours and the MICs determined. […]
(In agar dilution the substance is mixed into plates at graded concentrations.)

Assay [1] has as its system Candida tropicalis. Briefly: agar dilution assay (MIC) vs Candida tropicalis SC 2963. The following applies: Candida tropicalis S.C. No. 2963; F-4 agar; 10^3 CFU. As for the experimental part:
(§2) The following methodology was used to determine the minimum inhibitory concentration (hereinafter referred to as MIC) of the compounds of this invention against bacteria. The test organisms were grown in 20 ml of Antibiotic Assay Broth (Difco) by inoculating the broth (in tubes) with a loopful of the organism from a BHI (Difco) agar slant. The inoculated tubes were incubated at 37° C. for 18 to 24 hours. These cultures were assumed to contain 10^9 colony forming units (CFU) per ml. The cultures were diluted 1:100 to give a final inoculum level of 10^7 CFU; dilutions were made with Yeast Beef Broth (Difco). The test compounds were dissolved in an appropriate diluent at a concentration of 1,000 μg/ml. Two-fold dilutions were made in Yeast Beef Broth (Difco), resulting in a range from 1000 μg/ml to 0.5 μg/ml. A 1.5 ml portion of each dilution was placed into individual petri dishes to which 13.5 ml of K-10 agar was added. The composition of K-10 agar is
(§3) The final drug concentration in the agar ranged from 100 μg/ml to 0.05 μg/ml. Organism growth control plates containing agar only were prepared and inoculated before and after the test plates. […]
(§4) The plates were incubated at 37° C. for 18 hours and the MICs determined. […]

Another assay deals with Micrococcus luteus. Briefly: agar dilution assay (MIC) vs Micrococcus luteus SC 2495. The following applies: Micrococcus luteus S.C. No. 2495; K-10 agar; 10^4 CFU; 37° C., 18 hours. Here is the method: as §1
In another assay the test system is Escherichia coli. Briefly: agar dilution assay (MIC) vs Escherichia coli SC 10909. The conditions noted are these: Escherichia coli S.C. No. 10909; K-10 agar; 10^4 CFU; 37° C., 18 hours. As for the experimental part:
as §1

Assay [2] has as its system Candida tropicalis. Briefly: agar dilution assay (MIC) vs Candida tropicalis SC 9861. The following applies: Candida tropicalis S.C. No. 9861; F-4 agar; 10^3 CFU. As for the experimental part: as §2, §3, §4
A further assay has as its system Mycobacterium fortuitum. Briefly: agar dilution assay (MIC) vs Mycobacterium fortuitum SC 8571. The following applies: Mycolicibacterium fortuitum; Mycobacterium fortuitum S.C. No. 8571; K-10 agar; 10^4 CFU; 37° C., 18 hours. As for the experimental part:
as §1

As usually defined, the MIC is the lowest concentration that inhibits growth of the organism. A higher MIC goes with a need for much substance.

For the compound `C=C(C)C#Cc1cc(O)c(CC=C(C)C)cc1O` [culpin, 2-(3-methyl-2-butenyl)-5-(3-methyl-3-buten-1-ynyl)-1,4-benzenediol], the MIC in the assay on Streptococcus agalactiae worked out at 50 µg/mL (≈ 206 µM); against Candida tropicalis [1], 50 µg/mL (≈ 206 µM); with Micrococcus luteus, 100 µg/mL (≈ 413 µM); against Escherichia coli, 100 µg/mL (≈ 413 µM); in the assay on Candida tropicalis [2], 50 µg/mL (≈ 206 µM); against Mycobacterium fortuitum, 50 µg/mL (≈ 206 µM).
